Among the data in the NIST ThermoML archive (doi:10.1016/j.jct.2014.01.031) are electrical conductivity, viscosity and self diffusion coefficient values, retold here.

Structures are written as SMILES. ± gives the expanded uncertainty stated by the source.

For data set [1] the following is noted: 298.15 K, 101 kPa, Liquid; for electrical conductivity: Alternating current cell with electrodes; for viscosity: Falling or rolling sphere viscometry; for self diffusion coefficient: PFG NMR Spectroscopy.
Data set [2] in a line: xn = mol fraction of the nth substance listed. Particulars: 298.15 K, 101 kPa, Liquid; for electrical conductivity: Alternating current cell with electrodes; for viscosity: Falling or rolling sphere viscometry.

By viscosity is commonly meant the internal friction of a fluid under shear. As to `CCCCn1cc[n+](C)c1.COS(=O)(=O)[O-]` [1-butyl-3-methylimidazolium methyl sulfate], in data set [1], the electrical conductivity turned out to be 0.126 ± 0.002 S/m, the viscosity stood at 223 ± 12 mPa·s and the self diffusion coefficient stood at 1.3e-11 m2/s.
`CCn1cc[n+](C)c1.COS(=O)(=O)[O-]` [1-ethyl-3-methylimidazolium methylsulfate] + O: the electrical conductivity was 0.547 ± 0.007 S/m in data set [2] (x2 = 0); 0.909 ± 0.011 S/m in data set [2] (x2 = 0.2542); 1.6 ± 0.019 S/m in data set [2] (x2 = 0.4994); 3.16 ± 0.038 S/m in data set [2] (x2 = 0.7519); 3.99 ± 0.048 S/m in data set [2] (x2 = 0.8053); 6.23 ± 0.075 S/m in data set [2] (x2 = 0.9249). Besides, the electrical conductivity in data set [2] (x2 = 0.9737) came to 4.58 ± 0.055 S/m. For the same compound, the viscosity is on record as 81.4 ± 2.7 mPa·s in data set [2] (x2 = 0); 39.7 ± 1.3 mPa·s in data set [2] (x2 = 0.2542); 20.2 ± 0.7 mPa·s in data set [2] (x2 = 0.4994); 8.59 ± 0.31 mPa·s in data set [2] (x2 = 0.7519); 6.62 ± 0.25 mPa·s in data set [2] (x2 = 0.8053); 2.59 ± 0.1 mPa·s in data set [2] (x2 = 0.9249). The viscosity in data set [2] (x2 = 0.9737) was 1.43 ± 0.06 mPa·s.
In the case of `CCn1cc[n+](C)c1.COS(=O)(=O)[O-]` [1-ethyl-3-methylimidazolium methylsulfate], in data set [1], the electrical conductivity was found to be 0.547 ± 0.007 S/m, the viscosity is listed as 81.4 ± 2.7 mPa·s and the self diffusion coefficient turned out to be 4.6e-11 m2/s.
Take `CCCCn1cc[n+](C)c1.COS(=O)(=O)[O-]` [1-butyl-3-methylimidazolium methyl sulfate] + O: the electrical conductivity in data set [2] (x2 = 0) was determined as 0.126 ± 0.002 S/m; in data set [2] (x2 = 0.1999), 0.247 ± 0.003 S/m; in data set [2] (x2 = 0.4037), 0.4 ± 0.005 S/m; in data set [2] (x2 = 0.617), 0.799 ± 0.01 S/m; in data set [2] (x2 = 0.7937), 1.77 ± 0.021 S/m; in data set [2] (x2 = 0.9437), 3.42 ± 0.041 S/m. Also, the electrical conductivity in data set [2] (x2 = 0.992) is 1.92 ± 0.044 S/m; in data set [2] (x2 = 0.9977), 0.849 ± 0.039 S/m. The viscosity is recorded as 223 ± 12 mPa·s in data set [2] (x2 = 0); 112 ± 4 mPa·s in data set [2] (x2 = 0.1999); 63.1 ± 2.1 mPa·s in data set [2] (x2 = 0.4037); 27.6 ± 1 mPa·s in data set [2] (x2 = 0.617); 11.5 ± 0.4 mPa·s in data set [2] (x2 = 0.7937).
For the compound `O` [water] + CCCCn1cc[n+](C)c1.COS(=O)(=O)[O-], in data set [2] (x1 = 1), the viscosity stood at 0.89 ± 0.04 mPa·s.
With `O` [water], in data set [1], the viscosity was determined as 0.89 ± 0.04 mPa·s and the self diffusion coefficient turned out to be 2.3e-09 m2/s.
Regarding `O` [water] + CCn1cc[n+](C)c1.COS(=O)(=O)[O-], the viscosity in data set [2] (x1 = 1) stood at 0.89 ± 0.04 mPa·s.
